Measured values from patent US9957214B2, “Multifunctional radical quenchers” (ARIZONA BOARD OF REGENTS ON BEHALF OF ARIZONA STATE …, priority 2012, dated 2018).

Key:
[1] = biological target: bovine heart mitochondrial complex I (Bos taurus, UniProt P03887+P17694+P42026); experiment: Complex I (NADH-Q1 oxidoreductase) inhibition in submitochondrial particles; format: biochemical; details: submitochondrial particles, 30° C.; for IC50: read-out: Complex I inhibition IC50; for Emax: read-out: Complex I inhibition Imax
bovine heart mitochondrial complex I, sequence (P25708 21-464): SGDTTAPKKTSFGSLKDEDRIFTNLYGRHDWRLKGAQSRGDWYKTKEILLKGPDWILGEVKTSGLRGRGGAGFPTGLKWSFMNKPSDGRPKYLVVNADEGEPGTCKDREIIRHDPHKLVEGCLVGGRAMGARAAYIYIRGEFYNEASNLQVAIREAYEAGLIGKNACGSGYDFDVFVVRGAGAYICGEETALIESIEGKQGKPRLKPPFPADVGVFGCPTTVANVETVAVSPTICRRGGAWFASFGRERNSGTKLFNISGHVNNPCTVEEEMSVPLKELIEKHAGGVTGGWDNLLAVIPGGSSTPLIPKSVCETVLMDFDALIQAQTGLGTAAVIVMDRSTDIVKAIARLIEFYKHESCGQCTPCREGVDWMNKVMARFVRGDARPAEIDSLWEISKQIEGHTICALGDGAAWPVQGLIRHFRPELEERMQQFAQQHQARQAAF
bovine heart mitochondrial complex I, sequence (P42026 38-216): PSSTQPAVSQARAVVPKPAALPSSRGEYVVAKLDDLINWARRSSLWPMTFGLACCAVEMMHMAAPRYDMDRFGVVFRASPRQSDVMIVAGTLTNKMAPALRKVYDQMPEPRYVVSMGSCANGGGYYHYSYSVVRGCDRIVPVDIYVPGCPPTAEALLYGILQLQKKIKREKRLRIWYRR
bovine heart mitochondrial complex I, sequence (P17694 34-463): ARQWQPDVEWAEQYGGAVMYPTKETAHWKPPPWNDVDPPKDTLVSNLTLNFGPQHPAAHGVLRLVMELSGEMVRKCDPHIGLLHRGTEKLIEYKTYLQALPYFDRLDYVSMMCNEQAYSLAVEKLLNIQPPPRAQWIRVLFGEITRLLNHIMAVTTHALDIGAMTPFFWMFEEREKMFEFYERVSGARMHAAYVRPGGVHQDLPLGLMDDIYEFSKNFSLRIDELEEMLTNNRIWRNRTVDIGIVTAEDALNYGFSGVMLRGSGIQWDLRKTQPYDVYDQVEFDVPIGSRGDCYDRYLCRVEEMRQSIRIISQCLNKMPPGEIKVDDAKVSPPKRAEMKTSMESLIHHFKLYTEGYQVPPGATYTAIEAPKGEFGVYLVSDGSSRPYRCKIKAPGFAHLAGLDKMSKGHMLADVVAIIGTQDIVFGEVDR
bovine heart mitochondrial complex I, sequence (P15690 24-727, further chain): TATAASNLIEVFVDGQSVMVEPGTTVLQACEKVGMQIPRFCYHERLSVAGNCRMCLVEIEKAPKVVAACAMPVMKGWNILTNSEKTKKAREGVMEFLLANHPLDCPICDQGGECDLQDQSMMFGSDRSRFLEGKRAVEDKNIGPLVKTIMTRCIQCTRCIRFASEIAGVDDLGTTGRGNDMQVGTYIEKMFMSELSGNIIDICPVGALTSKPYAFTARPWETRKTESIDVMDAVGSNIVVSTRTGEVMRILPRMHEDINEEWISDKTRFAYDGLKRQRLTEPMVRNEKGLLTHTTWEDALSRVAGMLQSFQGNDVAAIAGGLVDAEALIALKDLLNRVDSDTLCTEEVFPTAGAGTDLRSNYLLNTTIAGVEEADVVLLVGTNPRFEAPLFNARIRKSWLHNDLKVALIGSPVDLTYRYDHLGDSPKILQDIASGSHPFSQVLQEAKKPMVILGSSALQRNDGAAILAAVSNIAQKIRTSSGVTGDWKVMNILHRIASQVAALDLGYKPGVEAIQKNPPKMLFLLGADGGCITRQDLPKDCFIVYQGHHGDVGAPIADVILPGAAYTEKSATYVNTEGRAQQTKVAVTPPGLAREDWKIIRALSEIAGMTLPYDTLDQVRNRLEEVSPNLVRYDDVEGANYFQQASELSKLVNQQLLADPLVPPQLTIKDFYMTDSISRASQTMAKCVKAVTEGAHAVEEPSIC
bovine heart mitochondrial complex I, sequence (P03887 whole entry): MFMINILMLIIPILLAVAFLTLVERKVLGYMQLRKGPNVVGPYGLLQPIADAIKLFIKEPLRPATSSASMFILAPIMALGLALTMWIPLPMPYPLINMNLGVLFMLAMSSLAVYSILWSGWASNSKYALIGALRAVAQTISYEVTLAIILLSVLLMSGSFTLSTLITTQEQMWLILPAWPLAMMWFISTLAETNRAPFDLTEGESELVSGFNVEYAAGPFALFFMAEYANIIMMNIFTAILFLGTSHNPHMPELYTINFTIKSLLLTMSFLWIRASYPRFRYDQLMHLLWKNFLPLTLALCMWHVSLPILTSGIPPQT
bovine heart mitochondrial complex I, sequence (P42028 37-212, further chain): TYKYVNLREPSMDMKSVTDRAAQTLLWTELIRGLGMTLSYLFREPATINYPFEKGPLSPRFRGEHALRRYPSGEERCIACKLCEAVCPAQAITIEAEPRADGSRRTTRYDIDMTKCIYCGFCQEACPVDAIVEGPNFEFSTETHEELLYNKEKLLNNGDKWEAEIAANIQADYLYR

[2] = test system: NADH oxidase (complexes I, III and IV); experiment: NADH oxidase activity (complexes I, III and IV) in submitochondrial particles; format: biochemical, bovine
[3] = test system: Friedreich's ataxia lymphoblast cell line GM15850; experiment: Cytoprotection (trypan blue exclusion assay) of DEM-treated FRDA lymphocytes; format: cell-based; details: for viability at 5 µM / viability at 0.1 µM / viability at 0.5 µM / viability at 2.5 µM / viability at 1 µM: Homo sapiens, GM15850, DEM alone 18 ± 10% viability, read-out: Cytoprotection (cell viability, % of untreated control)
Description: Cell viability was determined by trypan blue exclusion assay in Friedreich's ataxia lymphoblast cell line GM15850 (Coriell Institute, New Jersey). This technique was used to assess the cytoprotective effects of the tested compounds in cultured cells treated with DEM to induce cell death by GSH depletion. The viability of DEM-treated FRDA cells was determined by their ability to exclude the dye trypan blue. Viable cells exclude trypan blue, whereas non-viable cells take up the dye and stain blue. Briefly, FRDA lymphocytes were grown in RPMI 1640 medium (Gibco) supplemented with 15% fetal calf serum, 2 mM glutamine (HyClone) and 1% penicillin-streptomycin mix (Cellgro). Cells were seeded at a density of 5×10^5 cells/mL and treated with different concentrations of the indicated compounds. Cells were incubated at 37° C. in a humidified atmosphere of 5% CO2 in air for 17 h. After pre-incubation, the cells were treated with 5 mM DEM. Cell viability was determined by staining cells with 0.4% trypan blue using a hemacytometer. At least 500 cells were counted in each experimental group. At the time of assay, <20% of DEM treated cells were viable (trypan blue negative), whereas in non DEM-treated control, >90% cells were viable. Cell viability was expressed as the percentage of control. Data are expressed as means±S.E.M. (n=3).
Cell viability was determined by trypan blue exclusion assay in Friedreich's ataxia lymphoblast cell line GM15850 (Coriell Institute). This technique was used to assess the cytoprotective effects of the compounds in cultured cells treated with diethyl maleate (DEM) to induce cell death by glutathione (GSH) depletion. The viability of DEM-treated FRDA cells was determined by their ability to exclude the dye trypan blue. Viable cells exclude trypan blue, whereas non-viable cells take up the dye and stain blue. […] Benzoquinone analogue 9 afforded greater cyoprotection to FRDA lymphocytes at 5 μM concentration than did the tert-butyl ester 6 (74 vs 50%).

FRDA lymphocytes = experiment: Suppression of lipid peroxidation (C11-BODIPY581/591, FACS) in FRDA lymphocytes treated with diethyl maleate; format: cell-based; details: Lymphocyte, DEM, read-out: Scavenging activity (%), suppression of lipid peroxidation
Source text: Several methods for assaying lipid peroxidation in vitro have been developed (Kuypers et al. (1987) Biochim Biophys Acta. 25, 266-274; Pap et al. (1999) FEBS Lett. 453, 278-282; Drummen et al. (2002) Free RadicBiol Med. 33, 473-490). Almost all of these methods are based on inhibition of free radical-induced oxidation reactions. A widely used fluorescence assay for lipid peroxidation uses lipid soluble cis-parinaric acid as a probe. cis-parinaric acid loses its fluorescence (λexc/em: 320/432 nm) upon interaction with peroxyl radicals and retains its fluorescence in the presence of radical quenchers. cis-parinaric acid is, however, air sensitive, photolabile and absorbs light in the UV region of the spectrum (at ˜320 nm). […] In practical terms, the results obtained using cis-parinaric as a probe for lipid peroxidation are confounded due to the overlapping of the compounds emission spectra with the cis-parinaric emission spectrum. C11-BODIPY^581/591 Oxidation to Measure Lipid Peroxidation To overcome the problem of spectral overlap using cis-parinaric acid, a fluorescence assay for lipid peroxidation using a lipophilic probe belonging to the BODIPY class of fluorescent dyes was used C11-BODIPY^581/591 (4,4-difluoro-5(4-phenyl-1,3-butadienyl)-4-bora-3a, 4a-diaza-s-indacene-3-propionic acid) fluorescent shifts from red to green upon oxidation. C11-BODIPY^581/591 (Molecular Probes, Eugene, Oreg., USA) stock solution concentrations were determined by measuring the absorption of C11-BODIPY^581/591 at 582 nm using a molar extinction coefficient of 140,000 mol^−1 cm^−1 (R. P. Haugland, (1999) Handbook of Fluorescent Probes and Research Chemicals, Molecular Probes, Inc., Eugene, Oreg.). The lipid peroxidation inducer 2,2′-Azobis (2-amidino-propane dihydrochloride) (AAPH) and the antioxidant compound α-tocopherol (α-TOH) were obtained from Sigma (St. Louis, Mo., USA). Phospholipid bilayers were prepared from 1-stearoyl-2-oleoyl-phosphatidylcholine (SOPC) and 1,2-dilinoleoyl-phosphatidylcholine (DLPC) and were purchased from Avanti® polar lipids, Inc., (Alabaster, Ala., USA). Preparation of Liposomes Phosphotidylcholine (PC) liposomes were prepared as described before (Guey-Shuang et al. (1982) Lipids. 17, 403-413). Briefly, DLPC (25 mg) were dissolved in chloroform and the solvent was removed by nitrogen evaporation (˜2 hours) to give a thin film of PC in a round bottom flask. The lipid film was hydrated with 50 mL of 10 mM Tris-HCl (pH 7.4), 100 mM KCl, shaken and sonicated for 15 seconds. The liposomes obtained were filtered several times through […] membrane filter. Measurement of C11-BODIPY^581/591 Oxidation C11-BODIPY^581/591 was incorporated into liposomes and oxidized by peroxyl radicals derived from the decomposition of AAPH in the presence and absence of compounds. Liposomes (1 mg/mL), suspended in 10 mM Tris-HCl (pH 7.4), 100 mM KCl, were transferred to a quartz 1 mL cuvette and placed in a Varian Cary Eclipse fluorometer (Varian, Cary, N.C.) equipped with a thermostatted cuvette holder at 40° C. Liposomes were pre-incubated for 10 min with 200 nM C11-BODIPY^581/591 to allow their incorporation into the lipid phase of the liposomes. After the addition of AAPH (10 mM) the decay of the red fluorescence was followed at λ exc=570 nm, λ em=600 nm. Relative fluorescence units were normalized to 100% intensity. Results obtained were verified by repeating experiments N=3 independent experiments. Measurement of C11-BODIPY^581/591 Oxidation in Cell Culture A quantitative FACS analysis of lipid peroxidation of FRDA lymphocytes, which had been treated with diethyl maleate following incubation in the presence and absence of the test compounds, was measured as described (Khdour et al. (2011) Pharmaceut. Res. 28, 2896-2909). Briefly, FRDA lymphocytes (5×10^5 cell/mL) were treated with the test compounds at final concentrations of 5 and 10 μM and incubated at 37° C. for 16 h in a humidified atmosphere containing 5% CO2 in air. […]

`C=CCCCCCCCCCC1=C(OC)C(=O)C=C(NCCCCC=C)C1=O` [Compound 38, 5-(hex-5-enylamino)-2-methoxy-3-(undec-10-enyl)cyclohexa-2,5-diene-1,4-dione] showed a melting point of 45 to 46 °C.

`C=CCCCCCCCCCC1=C(O)C(=O)C=C(NCCCCC=C)C1=O` [Compound 37, 5-(hex-5-enylamino)-2-hydroxy-3-(undec-10-enyl)cyclohexa-2,5-diene-1,4-dione] showed a melting point of 77 to 78 °C.

With `CCCCCCCCCCCCCC1=C(O)C(=O)C=C(N(C)CCCC(=O)OCCCCCC)C1=O` [Compound 23, hexyl 4-((4-hydroxy-3,6-dioxo-5-tridecylcyclohexa-1,4-dienyl)(methyl)amino)-butanoate] the IC50 [1] was 3.4 ± 0.1 µM, the Emax [1] was 78 ± 0.8% and the “NADH oxidase activity (Complex I, III, IV) %” value ([2]; 1 μM) was 82 ± 2.4%. The “NADH oxidase activity (Complex I, III, IV) %” value ([2]; 5 μM) was 36 ± 1.0% and the “NADH oxidase activity (Complex I, III, IV) %” value ([2]; 10 μM) was 18 ± 0.5%.

`CCCCCCCCCCCCCC1=C(O)C(=O)C=C(NCCCC(=O)OCc2ccccc2)C1=O` [Compound 11, Benzyl 4-(4-hydroxy-3,6-dioxo-5-tridecylcyclohexa-1,4-dienylamino)butanoate] showed a viability at 5 µM ([3]; 5 μM) of 48 ± 5.8%, an IC50 [1] of 1.7 ± 0.1 µM and an Emax [1] of 70 ± 0.31%.

Compound `C=CCCCCCCCCCC1=C(OC)C(=O)C=C(OC)C1=O` has a melting point of 30 to 31 °C.

For `CCCCCCCCCCCCCC1=C(O)C(=O)C=C(NCCCC(=O)O)C1=O` [Compound 8, 4-(4-hydroxy-3,6-dioxo-5-tridecylcyclohexa-1,4-dienylamino)butanoic Acid], the inhibition at 5 µM (FRDA lymphocytes) was 8 ± 6.6%, the inhibition at 10 µM (FRDA lymphocytes) was 24% and the “Cytoprotection (in words)” value ([3]; 5 μM, compared with 6 and 9) was “least protection”. It also gave a viability at 5 µM ([3]; 5 μM) of 36 ± 7.3%, an IC50 [1] of 2 ± 0.1 µM and an Emax [1] of 84 ± 1.3%. The “NADH oxidase activity (Complex I, III, IV) %” value ([2]; 1 μM) was 77 ± 4.0% and the “NADH oxidase activity (Complex I, III, IV) %” value ([2]; 5 μM) was 62 ± 3.0%.

With `CCCCCCCCCCCCCC1=C(OC)C(=O)C=C(NCCCC(=O)O)C1=O` [Compound 9, 4-(4-methoxy-3,6-dioxo-5-tridecylcyclohexa-1,4-dienylamino)butanoic Acid] the inhibition at 5 µM (FRDA lymphocytes) was 41 ± 7.2%, the inhibition at 10 µM (FRDA lymphocytes) was 51 ± 5% and the viability at 5 µM ([3]; 5 μM) was 74%. For the same compound, the IC50 [1] was 1.9 ± 0.1 µM and the Emax [1] was 98 ± 2.8%.

In the case of `CCCCCCCCCCCCCC1=C(OC)C(=O)C=C(N(C)CCCC(=O)OCCCCCC)C1=O` [Compound 24, Hexyl 4-((4-methoxy-3,6-dioxo-5-tridecylcyclohexa-1,4-dienyl)(methyl)amino)butanoate], the IC50 [1] is reported as 1.9 ± 0.1 µM, the Emax [1] is reported as 90 ± 0.7% and the “NADH oxidase activity (Complex I, III, IV) %” value ([2]; 1 μM) is reported as 81 ± 1.5%. The “NADH oxidase activity (Complex I, III, IV) %” value ([2]; 5 μM) was 33 ± 0.9% and the “NADH oxidase activity (Complex I, III, IV) %” value ([2]; 10 μM) was 17 ± 0.4%.

In the case of `CCCCCCCCCCCCCC1=C(OC)C(=O)C=C(N(C)C)C1=O` [Compound 26, 5-(dimethylamino)-2-methoxy-3-tridecylcyclohexa-2,5-diene-1,4-dione], the viability at 0.1 µM [3] is reported as 53 ± 9%, the viability at 0.5 µM [3] is reported as 66 ± 3% and the viability at 2.5 µM [3] is reported as 90 ± 3%. The IC50 [1] was 1.6 ± 0.03 µM, the Emax [1] was 90 ± 1.1% and the “NADH oxidase activity (Complex I, III, IV) %” value ([2]; 1 μM) was 70 ± 2.1%. For the same compound, the “NADH oxidase activity (Complex I, III, IV) %” value ([2]; 5 μM) was 34 ± 0.6% and the “NADH oxidase activity (Complex I, III, IV) %” value ([2]; 10 μM) was 15 ± 0.4%.

In the case of `CCCCCCCCCCCCCC1=C(OC)C(=O)C=C(NCCCC(=O)OCc2ccccc2)C1=O` [Compound 12, benzyl 4-(4-methoxy-3,6-dioxo-5-tridecylcyclohexa-1,4-dienylamino)butanoate], the viability at 5 µM ([3]; 5 μM) is reported as 71 ± 6.4%, the IC50 [1] is reported as 34 ± 2.5 µM and the Emax [1] is reported as at least 53%. The “NADH oxidase activity (Complex I, III, IV) %” value ([2]; 1 μM) was 67 ± 6.0% and the “NADH oxidase activity (Complex I, III, IV) %” value ([2]; 5 μM) was 48 ± 3.0%.

Work on `CCCCCCCCCCCCCC1=C(O)C(=O)C=C(N(C)C)C1=O` [Compound 25, 5-(dimethylamino)-2-hydroxy-3-tridecylcyclohexa-2,5-diene-1,4-dione] yielded a viability at 0.1 µM [3] of 21 ± 3%, a viability at 0.5 µM [3] of 18 ± 4% and a viability at 2.5 µM [3] of 24 ± 3%. For the same compound, the IC50 [1] was 1.5 ± 0.1 µM, the Emax [1] was 90 ± 3.4% and the “NADH oxidase activity (Complex I, III, IV) %” value ([2]; 1 μM) was 18 ± 0.5%. For the same compound, the “NADH oxidase activity (Complex I, III, IV) %” value ([2]; 5 μM) was 6.6 ± 0.1% and the “NADH oxidase activity (Complex I, III, IV) %” value ([2]; 10 μM) was 5.0 ± 0.1%.

For `CCCCCCCCCCCCCC1=C(OC)C(=O)C=C(N(C)CCCC(=O)OC(C)(C)C)C1=O` [Compound 30, tert-butyl 4-((4-methoxy-3,6-dioxo-5-tridecylcyclohexa-1,4-dienyl)(methyl)amino)-butanoate], the inhibition at 5 µM (FRDA lymphocytes) was 97%, the inhibition at 10 µM (FRDA lymphocytes) was 100% and the viability at 1 µM [3] was 64 ± 15%. For the same compound, the viability at 2.5 µM [3] was 82 ± 5%.

In the case of `CCCCCCCCCCCCCC1=C(O)C(=O)C=C(NCCCC(=O)OCCCCCC)C1=O` [Compound 17, Hexyl 4-(4-hydroxy-3,6-dioxo-5-tridecylcyclohexa-1,4-dienylamino)butanoate], the inhibition at 5 µM (FRDA lymphocytes) is reported as 9 ± 2.5%, the inhibition at 10 µM (FRDA lymphocytes) is reported as 40 ± 9.9% and the viability at 5 µM ([3]; 5 μM) is reported as 49 ± 9.9%. For the same compound, the IC50 [1] was 2 ± 0.4 µM and the Emax [1] was 51 ± 1.4%.

Work on `CCCCCCCCCCCCCC1=C(O)C(=O)C=C(N(C)CCCC(=O)OC(C)(C)C)C1=O` [Compound 29, tert-butyl 4-((4-hydroxy-3,6-dioxo-5-tridecylcyclohexa-1,4-dienyl)(methyl)amino)-butanoate] yielded a viability at 1 µM [3] of 21% and a viability at 2.5 µM [3] of 74 ± 4%.

With `CCCCCCCCCCCCCC1=C(O)C(=O)C=C(NCCCC(=O)OCCCC)C1=O` [Compound 14, Butyl 4-(4-hydroxy-3,6-dioxo-5-tridecylcyclohexa-1,4-dienylamino)butanoate] the viability at 5 µM ([3]; 5 μM) was 58 ± 9%, the IC50 [1] was 11 ± 0.6 µM and the Emax [1] was 58 ± 4%.
